Test results as given in patent publication US7390641B2, “Production of peroxidase from plant cell and callus cultures” (Council of Scientific and Industrial Research, priority 2004, dated 2008).
Where two headings read alike, the source gives them in different places.

Assays:
[1] = system: callus cultures of Nirgundi (Vitex negundo); assay: Effect of growth regulators on callus growth and enzyme activity of callus cultures; type: cell-based; settings: MS medium, Vitex negundo leaf callus; result in words
Source text: Leaf tissues were taken as explants for callus initiation after being properly washed in 10% Labolene followed by surface sterilization in 0.1% Mercuric chloride under aseptic conditions and inoculated in Murashige and Skoog (MS) medium containing 3% sucrose, 0.8% agar in addition to plant growth regulators like kinetin (6-furfuryl amino purine), BAP (benzyl amino purine), 2,4-D (2,4-dichlorophenoxyacetic acid), NAA (naphthalene acetic acid), IBA (indole-3-butyric acid) alone and in different combinations and sub culturing was also done in similar hormone combinations for proliferation. When no hormone was supplied in the medium, callus growth was very slow albeit showing good peroxidase activity. […] The pH was kept at 5.8 in all the experiments. Once established, the liquid suspension was maintained by the sub-culturing of 10 ml each of 7 day culture into 100 ml of fresh media in 250 ml Erlenmeyer flasks and the CCAs were also maintained by the subsequent sub-culturing of 5 g each of the sample into fresh liquid media and the flasks were placed on a gyratory shaker at 120 rpm in the light at 25° C. Viability as well as activity was maintained even after a period of 6 months.

[2] = system: Vitex extra cellular peroxidase; type: biochemical, Vitex negundo

Row | Structure (SMILES) | Relative activity(%) ([2]; Reagent 1 Mm, None = 100) | Effect on Vitex peroxidase activity (inhibitor / enhancer / no change) ([2]; result in words) | further results
1 | O=C(O)COc1ccc(Cl)cc1Cl [2,4-D, 2,4-dichlorophenoxyacetic acid] | – | – | Effect on callus growth and enzyme activity [1]: reduce both the callus growth as well as enzyme activity
2 | [I-].[K+] [KI] | 116 | – | –
3 | O=S(=O)([O-])[O-].[Zn+2] [ZnSO4] | 138 | enhancers | –
4 | [Cl-].[Na+] [NaCl] | – | – | Effect on Vitex peroxidase activity (inhibitor / enhancer / no change) [2]: enhancers; Relative activity(%) [2]: 110%
5 | O=C(O)Cc1c[nH]c2ccccc12 [IAA] | – | – | Effect on callus growth and enzyme activity [1]: reduce both the callus growth as well as enzyme activity
6 | O=C(O)CN(CCN(CC(=O)O)CC(=O)O)CC(=O)O [EDTA] | – | – | Effect on Vitex peroxidase activity (inhibitor / enhancer / no change) [2]: enhancers; Relative activity(%) [2]: 113%
7 | [Ca+2].[Cl-].[Cl-] [CaCl2] | 103 | no change in activity | –
8 | c1ccc(CNc2ncnc3[nH]cnc23)cc1 [BA, benzyl amino purine] | – | – | Effect on callus growth and enzyme activity [1]: better callus growth as well as enzyme activity
9 | O=S(=O)([O-])[O-].[Mg+2] [MgSO4] | 97 | no change in activity | –
10 | O=S(=O)([O-])[O-].[Mn+2] [MnSO4] | 131 | enhancers | –
11 | [N-]=[N+]=[N-].[Na+] [NaN3, sodium azide] | 73 | enhancers | inhibition (reduction in activity) ([2]; 0.1 ml of 1 mM sodium azide in 2.4 ml of total assay volume): 30%
12 | [Cl][Hg][Cl] [HgCl2] | 62 | Inhibitors | inhibition ([2]; HgCl2, text b118): 60%
